Results: the supplement of paper PMC12317010

Experiment: collision cross section in nitrogen (drift tube, single-field); higher = larger gas-phase ion size
[1] = ion type: [M+H], ion source: APCI, ion mode: Positive
[2] = ion type: [M+H], ion source: ESI, ion mode: Positive
[3] = ion type: [M-H], ion source: ESI, ion mode: Negative
[4] = ion type: [M+Na], ion source: ESI, ion mode: Positive
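Further: chemical standards at 10 µM analysed by drift tube IMS-QTOF MS in about 3.95 torr nitrogen, mean of duplicate injections differing ≤1%, mass error below 10 ppm.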

Row | SMILES | collision cross section in nitrogen [1] [Å²] | collision cross section in nitrogen [2] [Å²] | collision cross section in nitrogen [3] [Å²] | collision cross section in nitrogen [4] [Å²] | other results
1 | Cc1cnc2c(C(=O)O)c(Cl)ccc2c1 [Quinmerac] | 139.6 | 140.7 | – | 158 | –
2 | CCOP(=O)(NC(C)C)Oc1ccc(SC)c(C)c1 (stereo unspecified) [Fenamiphos] | 172.5 | 171.3 | 172.2 | 178.1 | –
3 | CCCCCCCCCCCCCCCC[N+](C)(C)C [Hexadecyltrimethylammonium bromide] | – | – | – | – | collision cross section in nitrogen (ion source: APCI, ion mode: Positive, ion type: [M]+ (permanent cation)): 193.1 Å²; collision cross section in nitrogen (ion source: ESI, ion mode: Positive, ion type: [M]+ (permanent cation)): 195.1 Å²
4 | C=CCOC(=O)c1ccccc1C(=O)OCC=C [Diallyl phthalate] | – | – | – | 159 | –
5 | CCCCCc1cc(O)cc(O)c1 [Olivetol] | – | – | 148.5 | – | –
6 | CCc1cccc(C)c1N(C(=O)CCl)C(C)COC (stereo unspecified) [Metolachlor] | 158.9 | 159.8 | – | 172.6 | –
7 | Oc1ccc(Oc2ccccc2)cc1 [4-Phenoxyphenol] | – | – | 145.7 | – | –
8 | CC(C)N(C(=O)COc1nnc(C(F)(F)F)s1)c1ccc(F)cc1 [Flufenacet] | – | – | – | 187.5 | –
9 | O=C1c2ccccc2C(=O)c2c1ccc1ccccc21 [7,12-Benz(a)anthraquinone] | – | – | 155.7 | – | –
10 | CC(C)COC(=O)c1ccccc1C(=O)OCC(C)C [Diisobutyl phthalate] | – | – | – | 181.8 | –
11 | CNC(=O)Oc1c(C(C)(C)C)cc(C)cc1C(C)(C)C [Terbucarb] | – | – | – | 176.8 | –
12 | O=C(OCCCCCCOC(=O)c1ccccc1)c1ccccc1 [Hexane-1,6-diyl dibenzoate] | – | – | – | 189.8 | –
13 | CCNc1nc(Cl)nc(NC(C)(C)C#N)n1 [Cyanazine] | 155.6 | 155.4 | – | – | –
14 | CNC(=O)N(C)c1nc2ccccc2s1 [Methabenzthiazuron] | 144.2 | 144.7 | – | – | –
15 | Cc1ccc(OP(=O)(Oc2ccc(C)cc2C)Oc2ccc(C)cc2C)c(C)c1 [Trixylyl phosphate] | 204.2 | 203.1 | – | 212.6 | –
16 | Oc1ccc2c(c1)-c1ccccc1C2 [3-Hydroxyfluorene] | – | – | 142.4 | – | –
17 | CN(C)NC(=O)CCC(=O)O [Daminozide] | – | – | 135.2 | 142.5 | –
18 | CC(C)COP(=O)(OCC(C)C)OCC(C)C [Triisobutyl phosphate] | – | – | – | 183.6 | –
19 | COc1ccc(O)c(C(C)(C)C)c1 [2-tert-Butyl-4-methoxyphenol] | – | – | 142.3 | – | –
20 | COCC(C)OCC(C)OCC(C)O (stereo unspecified) [Tripropylene glycol monomethyl ether] | – | – | – | 148.8 | –
21 | Nc1ccc(Cc2ccc(N)cc2)cc1 [4,4'-Diaminobiphenyl methane] | 163.3 | 163.1 | – | – | –
22 | COCC(C)N(C(=O)CCl)c1c(C)csc1C (stereo unspecified) [Dimethenamid] | 155.2 | 155.9 | – | 167.9 | –
23 | Cc1cc(N)n(-c2ccccc2)n1 [3-Methyl-1-phenyl-1H-pyrazol-5-amine] | 136.3 | 136.5 | 136.1 | – | –
24 | COc1ccc(C(=CC(=O)N2CCOCC2)c2ccc(Cl)cc2)cc1OC [Dimethomorph] | 200.7 | 199.2 | – | 208 | –
25 | COP(=O)(OC)C(O)C(Cl)(Cl)Cl (stereo unspecified) [Trichlorfon] | – | – | – | 151.7 | –

Continued, in another order:

Row | collision cross section in nitrogen [1] [Å²] | collision cross section in nitrogen [2] [Å²] | collision cross section in nitrogen [3] [Å²] | SMILES | collision cross section in nitrogen [4] [Å²] | other results
26 | 167.8 | 168.2 | 168.7 | CC(=O)Nc1ccc(N=Nc2cc(C)ccc2O)cc1 [C.I. Disperse Yellow 3] | – | –
27 | – | 195.5 | – | CCCCOC(=O)[C@@H](C)Oc1ccc(Oc2ccc(C(F)(F)F)cn2)cc1 | 194.5 | –
28 | – | – | 119.2 | O=[N+]([O-])c1cc[n+]([O-])cc1 [4-Nitropyridine-1-oxide] | – | –
29 | – | – | 153.3 | O=C(OCc1ccccc1)c1ccccc1O [Benzyl salicylate] | – | –
30 | – | 149.1 | 145 | NNC(=O)c1cccc(C(=O)NN)c1 [Isophthalyl dihydrazide] | – | –
31 | – | – | 144.6 | CCc1ccc(O)c(C(C)(C)C)c1 [2-tert-Butyl-4-ethylphenol] | – | –
32 | – | – | 203.1 | O=S(=O)(O)c1ccc(N=Nc2c(O)ccc3cc(S(=O)(=O)O)ccc23)cc1 [FD&C Yellow 6] | – | –
33 | 149.9 | 149.3 | 155.5 | O=C(O)CCCC[C@@H]1SC[C@H]2NC(=O)N[C@@H]12 [Biotin] | 159.6 | –
34 | 124.6 | 124.3 | – | OCCc1ccncc1 [2-(Pyridin-4-yl)ethanol] | – | –
35 | 141.6 | 142.2 | – | Nc1ccc(NCCO)c([N+](=O)[O-])c1 [HC Red 3] | – | –
36 | 204.1 | 203.7 | 204.5 | CN(c1nccc(=O)[nH]1)C1CCN(c2nc3ccccc3n2Cc2ccc(F)cc2)CC1 [Mizolastine] | 209.6 | –
37 | – | – | 127.6 | O=C(O)c1ccccc1C(=O)O [Monopotassium phthalate] | – | –
38 | – | – | 131.7 | Cc1ccccc1S(=O)(=O)O [Sodium 2-methylbenzenesulfonate] | – | –
39 | 146.3 | 146 | – | CCCCNC(=O)NCCCC [N,N'-Dibutylurea] | 164.2 | –
40 | – | – | 138.2 | Cc1ccc(C)c(S(=O)(=O)O)c1 [2,5-Dimethylbenzenesulfonic acid] | – | –
41 | – | – | 129.7 | CCC1(C)NC(=O)NC1=O (stereo unspecified) [5-Ethyl-5-methylhydantoin] | – | –
42 | 171.3 | 171 | 181.9 | CNC(=C[N+](=O)[O-])NCCSCc1csc(CN(C)C)n1 [Nizatidine] | 178.1 | –
43 | 174.3 | 173.8 | 176.1 | O=C1OC2(c3ccc(O)cc3Oc3cc(O)ccc32)c2ccccc21 [Fluorescein sodium] | 189.1 | –
44 | – | – | 212.9 | CCCCCC(=O)O[C@]1(C(C)=O)CC[C@H]2[C@@H]3CCC4=CC(=O)CC[C@]4(C)[C@H]3CC[C@@]21C [17-((1-Oxohexyl)oxy)pregn-4-ene-3,20-dione] | 225.6 | –
45 | 208.4 | 208.2 | – | CC[C@H]1CC[C@H](NCc2cc3c(cc2OC)[C@H]2C[C@H]2C(=O)N3C)[C@H](c2ccccc2)N1 | 214.4 | –
46 | 145.8 | 146.7 | – | CC1=Nc2ccc3ccccc3c2C1(C)C [1,1,2-Trimethyl-1H-benzo[e]indole] | – | –
47 | – | 162.2 | – | CN(C)Cc1ccccc1O [2-((Dimethylamino)methyl)phenol] | – | –
